According to US6720346B2, “Thiazole benzamide derivatives and pharmaceutical compositions for inhibiting cell proliferation” (Agouron Pharmaceuticals, Inc., priority 2001, dated 2004):

Tests used:
[1] = test system: HCT-116 cell line; assay: Inhibition of cell growth, MTT tetrazolium salt assay; format: cell-based; details: for HCT-116 % Inhibition at 0.1 μM / HCT-116 % Inhibition at 0.25 μM: HCT-116 cells; for HCT-116 % Inhibition at 0.1 μM: 0.1 μM compound; for HCT-116 % Inhibition at 0.25 μM: 0.25 μM compound
Summary of the method: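 Growth inhibition was read as MTT-formazan absorbance at 540 nm, after 4 h with 0.2 mg/mL MTT. Before that, HCT-116 cells had been exposed 3–5 days at 37 °C to compounds in 0.5% (v/v) DMSO, added 4 h after plating. 50% and 90% inhibitory concentrations were taken from semi-log concentration–inhibition plots versus vehicle controls.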

[2] = biological target: T1, CDK2/cyclin A (Homo sapiens, UniProt P24941); assay: Inhibition of CDK2/cyclin A retinoblastoma kinase activity (Ki; % inhibition); format: biochemical; details: for CDK2 % Inhibition at 0.03 μM: 0.03 μM compound
T1 construct: made in house; host or cells: CDK2: insect cells (baculovirus); cyclin A: E. coli
Summary of the method: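 Radiometric filter assay of CDK2/proteolyzed cyclin A (baculovirus-expressed human CDK2, 10 or 19 nM) phosphorylating an Rb fragment with 25 μM [³²P/³³P]ATP in pH 7.4 HEPES, 2% DMSO, at 30 °C for 60 or 75 min under initial-rate conditions. Library compounds screened at 30 nM for % inhibition; apparent Ki from concentration series fit to competitive or tight-binding inhibition equations.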

[3] = biological target: T2, human CDK4/cyclin D3 (Homo sapiens, UniProt P11802); assay: Inhibition of CDK4/cyclin D retinoblastoma kinase activity (Ki; % inhibition); format: biochemical; details: for CDK4 % Inhibition at 0.03 μM: 0.03 μM compound
T2 construct: made in house; host or cells: insect cells co-infected with baculovirus vectors
Summary of the method: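 Insect-cell-expressed CDK4 with truncated cyclin D3 (1-264), 5 nM, phosphorylating His-tagged Rb fragment (386-928) with 25 μM [32/33P]ATP at pH 7.4, 30 °C, 20 min (60 min for tight binders). Filter capture, phosphorimager read; % inhibition at 30 nM compound, Ki from competitive or tight-binding fits.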

T2 sequence (P11802 whole entry): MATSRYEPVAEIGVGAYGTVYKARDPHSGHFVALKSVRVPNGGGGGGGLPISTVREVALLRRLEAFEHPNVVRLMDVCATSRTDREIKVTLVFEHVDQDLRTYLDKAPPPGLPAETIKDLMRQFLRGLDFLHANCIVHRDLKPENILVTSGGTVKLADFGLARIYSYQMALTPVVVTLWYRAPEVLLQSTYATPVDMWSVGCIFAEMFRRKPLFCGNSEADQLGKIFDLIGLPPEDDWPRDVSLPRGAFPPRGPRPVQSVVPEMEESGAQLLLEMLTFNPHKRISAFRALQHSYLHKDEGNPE
T2 sequence (P30281 1-264 partner limits assumed): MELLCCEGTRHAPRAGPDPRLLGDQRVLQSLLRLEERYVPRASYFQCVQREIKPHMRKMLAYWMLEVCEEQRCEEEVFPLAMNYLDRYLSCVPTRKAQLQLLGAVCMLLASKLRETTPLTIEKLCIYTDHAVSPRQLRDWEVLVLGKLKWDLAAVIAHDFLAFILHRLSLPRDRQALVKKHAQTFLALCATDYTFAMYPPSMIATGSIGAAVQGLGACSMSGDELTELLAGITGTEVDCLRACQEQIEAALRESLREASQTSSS

| Compound | HCT-116 % Inhibition at 0.1 μM [1] [%] | HCT-116 % Inhibition at 0.25 μM [1] [%] | CDK2 % Inhibition at 0.03 μM [2] [%] | CDK4 % Inhibition at 0.03 μM [3] [%] | HCT-116 % Inhibition at 0.1 μM ([1]; 0.1 µM) [%] | HCT-116 % Inhibition at 0.25 μM ([1]; 0.25 µM) [%] | CDK2 % Inhibition at 0.03 μM ([2]; 0.03 µM) [%] | CDK4 % Inhibition at 0.03 μM ([3]; 0.03 µM) [%] | IC50 ([1]; Homo sapiens, HCT-116, 120 h, MTT, three to five days) [µM] | Ki ([2]; apparent Ki, CDK2/cyclin A, Rb substrate) [µM] | Ki ([3]; apparent Ki, CDK4/cyclin D3, Rb substrate) [µM] |
| --- | --- | --- | --- | --- | --- | --- | --- | --- | --- | --- | --- |
| Nc1nc(Nc2ccc(C(=O)NCCc3c(Cl)cccc3Cl)cc2)sc1C(=O)c1c(F)cccc1F [Example G372] | 19 | 51 | −21 | 6 | – | – | – | – | – | – | – |
| CC(=O)N[C@@H]1CCN(C(=O)c2ccc(Nc3nc(N)c(C(=O)c4c(F)cccc4F)s3)cc2)C1 [Example G373] | 31 | 48 | −7 | 10 | – | – | – | – | – | – | – |
| CCN(CC)CCN1CCN(C(=O)c2ccc(Nc3nc(N)c(C(=O)c4c(F)cccc4F)s3)cc2)CC1 [Example G374] | 21 | 41 | −10 | 13 | – | – | – | – | – | – | – |
| C[C@@H](CNC(=O)c1ccc(Nc2nc(N)c(C(=O)c3c(F)cccc3F)s2)cc1)c1ccccc1 [Example G375] | 26 | 62 | 10 | −3 | – | – | – | – | – | – | – |
| Nc1nc(Nc2ccc(C(=O)NC3c4ccccc4CC3O)cc2)sc1C(=O)c1c(F)cccc1F (stereo not shown) [Example G376] | 27 | 64 | 20 | −6 | – | – | – | – | – | – | – |
| Nc1nc(Nc2ccc(C(=O)Nc3cccc(SC(F)(F)F)c3)cc2)sc1C(=O)c1c(F)cccc1F [Example G377] | 25 | 55 | 10 | −1 | – | – | – | – | – | – | – |
| Nc1nc(Nc2ccc(C(=O)Nc3cccc(O)c3)cc2)sc1C(=O)c1c(F)cccc1F [Example G378] | 27 | 60 | 40 | 8 | – | – | – | – | – | – | – |
| Nc1nc(Nc2ccc(C(=O)N(CCO)Cc3ccccc3)cc2)sc1C(=O)c1c(F)cccc1F [Example G379] | 31 | 54 | 13 | 8 | – | – | – | – | – | – | – |
| CCOc1ccccc1CCNC(=O)c1ccc(Nc2nc(N)c(C(=O)c3c(F)cccc3F)s2)cc1 [Example G380] | 26 | 50 | −19 | 7 | – | – | – | – | – | – | – |
| Nc1nc(Nc2ccc(C(=O)NC3CCN(Cc4ccccc4)C3)cc2)sc1C(=O)c1c(F)cccc1F (stereo not shown) [Example G381] | – | – | – | – | 43 | 88 | 5 | 38 | – | – | – |
| CN(C)CCN1CCN(C(=O)c2ccc(Nc3nc(N)c(C(=O)c4c(F)cccc4F)s3)cc2)CC1 [Example G382] | 17 | 47 | −17 | 8 | – | – | – | – | – | – | – |
| Nc1nc(Nc2ccc(C(=O)NC(CO)CSCc3ccccc3)cc2)sc1C(=O)c1c(F)cccc1F (stereo not shown) [Example G383] | 33 | 51 | 15 | −10 | – | – | – | – | – | – | – |
| Nc1ccccc1CNC(=O)c1ccc(Nc2nc(N)c(C(=O)c3c(F)cccc3F)s2)cc1 [Example G384] | 38 | 84 | 45 | 23 | – | – | – | – | – | – | – |
| CCN(CCCCO)C(=O)c1ccc(Nc2nc(N)c(C(=O)c3c(F)cccc3F)s2)cc1 [Example G385] | 28 | 50 | 1 | −1 | – | – | – | – | – | – | – |
| CSCCC(CO)NC(=O)c1ccc(Nc2nc(N)c(C(=O)c3c(F)cccc3F)s2)cc1 (stereo not shown) [Example G386] | 28 | 51 | 19 | 12 | – | – | – | – | – | – | – |
| CN(CCC1OCCO1)C(=O)c1ccc(Nc2nc(N)c(C(=O)c3c(F)cccc3F)s2)cc1 [Example G387] | 32 | 52 | 10 | 11 | – | – | – | – | – | – | – |
| CC(NC(=O)c1ccc(Nc2nc(N)c(C(=O)c3c(F)cccc3F)s2)cc1)C1CCCCC1 (stereo not shown) [Example G388] | – | – | – | – | 9 | 45 | 3 | 8 | – | – | – |
| CC(C)c1cccc(NC(=O)c2ccc(Nc3nc(N)c(C(=O)c4c(F)cccc4F)s3)cc2)c1 [Example G389] | 11 | 61 | −12 | 4 | – | – | – | – | – | – | – |
| Nc1nc(Nc2ccc(C(=O)N3CCC(CO)CC3)cc2)sc1C(=O)c1c(F)cccc1F [Example G390] | 10 | 40 | −14 | 2 | – | – | – | – | – | – | – |
| Nc1nc(Nc2ccc(C(=O)NCC(O)c3ccccc3)cc2)sc1C(=O)c1c(F)cccc1F (stereo not shown) [Example G391] | 11 | 50 | 1 | −7 | – | – | – | – | – | – | – |
| CCOC(CCCNC(=O)c1ccc(Nc2nc(N)c(C(=O)c3c(F)cccc3F)s2)cc1)OCC [Example G392] | 8 | 49 | 12 | −2 | – | – | – | – | – | – | – |
| Cc1cc(NC(=O)c2ccc(Nc3nc(N)c(C(=O)c4c(F)cccc4F)s3)cc2)no1 [Example G393] | 8 | 46 | 8 | 0 | – | – | – | – | – | – | – |
| Nc1nc(Nc2ccc(C(=O)Nc3ccc(O)c(Cl)c3)cc2)sc1C(=O)c1c(F)cccc1F [Example G394] | 14 | 73 | 35 | 11 | – | – | – | – | – | – | – |
| Nc1nc(Nc2ccc(C(=O)N3CCN(CCc4cccs4)CC3)cc2)sc1C(=O)c1c(F)cccc1F [Example G395] | 19 | 48 | 17 | 15 | – | – | – | – | – | – | – |
| Cc1ccc(O)c(NC(=O)c2ccc(Nc3nc(N)c(C(=O)c4c(F)cccc4F)s3)cc2)c1 [Example G396] | 14 | 67 | −6 | 9 | – | – | – | – | – | – | – |
| CN(C)CCNC(=O)c1cccc(Nc2nc(N)c(C(=O)c3c(F)cccc3F)s2)c1 [F] | – | – | – | – | – | – | – | – | 1.8 | 0.27 | 0.14 |
